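Compound exposure: 48 hours, 5 concentrations, 96-well plates. GI50 = concentration required for 50% inhibition of growth. TGI: concentration producing complete growth inhibition.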
Assays:
Assay in all cases: inhibition of tumour cell growth, NCI panel, 48 h
[1] = system: NCI-H23 lung
[2] = system: SF-268 CNS
[3] = system: MOLT-4 leukemia
[4] = system: PC-3 prostate
[5] = system: HOP-62 NSCLC
[6] = system: RPMI-8226 leukemia
[7] = system: OVCAR-5 ovarian
[8] = system: A498 renal
[9] = system: U251 CNS
[10] = system: HL-60(TB) leukemia
[11] = system: KM12 colon
[12] = system: UO-31 renal
[13] = system: OVCAR-8 ovarian
[14] = system: RXF 393 renal
[15] = system: MALME-3M melanoma
[16] = system: LOX IMVI melanoma
[17] = system: CAKI-1 renal
[18] = system: SF-295 CNS
[19] = system: HS 578T breast
[20] = system: K-562 leukemia
[21] = system: DU-145 prostate
[22] = system: CCRF-CEM leukemia
[23] = system: SR leukemia
[24] = system: OVCAR-4 ovarian
[25] = system: HT29 colon
[26] = system: NCI-H226 lung
[27] = system: SF-539 CNS
[28] = system: T-47D breast
[29] = system: UACC-62 melanoma
[30] = system: SK-MEL-2 melanoma
[31] = system: UACC-257 melanoma
[32] = system: MCF7 breast
[33] = system: HCC-2998 colon
[34] = system: 786-0 renal
[35] = system: A549 NSCLC
[36] = system: NCI-H460 lung
[37] = system: HCT-116 colon
[38] = system: SN12C renal
[39] = system: MDA-MB-435
[40] = system: BT-549 breast
[41] = system: SK-MEL-5 melanoma
[42] = system: MDA-MB-231 breast
[43] = system: OVCAR-3 ovarian
[44] = system: SK-MEL-28 melanoma
[45] = system: HCT-15 colon
[46] = system: NCI/ADR-RES ovarian
[47] = system: ACHN renal
[48] = system: SK-OV-3 ovarian
[49] = system: IGROV1 ovarian
[50] = system: M14 melanoma
[51] = system: SNB-75 CNS
[52] = system: SW-620 colon
[53] = system: NCI-H522 lung
[54] = system: COLO 205 colon
[55] = system: SNB-19 CNS
[56] = system: TK-10 renal
[57] = system: HOP-92 NSCLC
[58] = system: EKVX NSCLC

Q: Which results are given for `COc1cc(Cl)cc(-c2nn(-c3cccc(NC(=O)c4ccc(N5CCOCC5)c(C(F)(F)F)c4)c3)cc2-c2ccncc2)c1`?
A: GI50 [1]: 30.7 µM; TGI [1]: > 100 µM; GI50 [2]: > 100 µM; TGI [2]: > 100 µM; GI50 [3]: 5.49 µM; TGI [3]: > 100 µM; GI50 [4]: 3.3 µM; TGI [4]: > 100 µM; GI50 [5]: 62.5 µM; TGI [5]: > 100 µM; GI50 [6]: 1.5 µM; TGI [6]: > 100 µM; GI50 [7]: 32.5 µM; TGI [7]: > 100 µM; GI50 [8]: 16.2 µM; TGI [8]: > 100 µM; GI50 [9]: 5.03 µM; TGI [9]: > 100 µM; GI50 [10]: 4.19 µM; TGI [10]: 33.2 µM; GI50 [11]: 5.38 µM; TGI [11]: > 100 µM; GI50 [12]: 4.5 µM; TGI [12]: > 100 µM; GI50 [13]: 6.33 µM; TGI [13]: > 100 µM; GI50 [14]: 0.83 µM; TGI [14]: 23.9 µM; GI50 [15]: 28.3 µM; TGI [15]: > 100 µM; GI50 [16]: 15.8 µM; TGI [16]: > 100 µM; GI50 [17]: 4.4 µM; TGI [17]: > 100 µM; GI50 [18]: 2.21 µM; TGI [18]: 14.8 µM; GI50 [19]: 6.48 µM; TGI [19]: > 100 µM; GI50 [20]: 3.1 µM; TGI [20]: > 100 µM; GI50 [21]: > 100 µM; TGI [21]: > 100 µM; GI50 [22]: 3.88 µM; TGI [22]: > 100 µM; GI50 [23]: 3.06 µM; TGI [23]: > 100 µM; GI50 [24]: 39.7 µM; TGI [24]: > 100 µM; GI50 [25]: 4.09 µM; TGI [25]: 38 µM; GI50 [26]: 93.4 µM; TGI [26]: > 100 µM; GI50 [27]: 3.74 µM; TGI [27]: > 100 µM; GI50 [28]: 10.4 µM; TGI [28]: > 100 µM; GI50 [29]: 9.1 µM; TGI [29]: > 100 µM; GI50 [30]: 21.1 µM; TGI [30]: > 100 µM; GI50 [31]: 21.7 µM; TGI [31]: 69.1 µM; GI50 [32]: 8.71 µM; TGI [32]: > 100 µM; GI50 [33]: 6.06 µM; TGI [33]: 74.7 µM; GI50 [34]: 3.23 µM; TGI [34]: 29.8 µM; GI50 [35]: 9.15 µM; TGI [35]: > 100 µM; GI50 [36]: 4.8 µM; TGI [36]: > 100 µM; GI50 [37]: 9.64 µM; TGI [37]: > 100 µM; GI50 [38]: > 100 µM; TGI [38]: > 100 µM; GI50 [39]: 43.6 µM; TGI [39]: > 100 µM; GI50 [40]: 89 µM; TGI [40]: > 100 µM; GI50 [41]: 16.5 µM; TGI [41]: > 100 µM; GI50 [42]: 2.83 µM; TGI [42]: 32.4 µM; GI50 [43]: 53.1 µM; TGI [43]: > 100 µM; GI50 [44]: 14.8 µM; TGI [44]: > 100 µM; GI50 [45]: 3.25 µM; TGI [45]: > 100 µM; GI50 [46]: 6.17 µM; TGI [46]: > 100 µM; GI50 [47]: 7.31 µM; TGI [47]: > 100 µM; GI50 [48]: > 100 µM; TGI [48]: > 100 µM; GI50 [49]: > 100 µM; TGI [49]: > 100 µM; GI50 [50]: 7.93 µM; TGI [50]: > 100 µM; GI50 [51]: 2.08 µM; TGI [51]: > 100 µM; GI50 [52]: 29.8 µM; TGI [52]: > 100 µM; GI50 [53]: 4.72 µM; TGI [53]: > 100 µM; GI50 [54]: 22.2 µM; TGI [54]: > 100 µM; GI50 [55]: > 100 µM; TGI [55]: > 100 µM

Q: Which TGI [1] does the source give for `OC[C@H]1O[C@@H]2O[C@@](COCc3ccccc3)([C@H](OCc3ccccc3)[C@H]2O)[C@@H]1OCc1ccccc1` here?
A: 34.1 µM

Q: What about the TGI [2] of the same compound?
A: 32.3 µM

Q: And the TGI [3]?
A: 21.9 µM

Q: What about the TGI [4] of the same compound?
A: 28 µM

Q: And the TGI [5]?
A: 32.6 µM

Q: And the TGI [6]?
A: 32.4 µM

Q: What about the TGI [7] of the same compound?
A: 31.3 µM

Q: What about the TGI [8] of the same compound?
A: 32.1 µM

Q: What about the TGI [9] of the same compound?
A: 29.5 µM

Q: And the TGI [10]?
A: 38.2 µM

Q: What about the TGI [11] of the same compound?
A: 32.1 µM

Q: And the TGI [12]?
A: 29.4 µM

Q: What about the TGI [13] of the same compound?
A: 29.1 µM

Q: What about the TGI [16] of the same compound?
A: 32.2 µM

Q: And the TGI [17]?
A: 29.8 µM

Q: And the TGI [56]?
A: 33.3 µM

Q: And the TGI [18]?
A: 28.8 µM

Q: And the TGI [19]?
A: 31.7 µM

Q: What about the TGI [20] of the same compound?
A: 25.2 µM

Q: What about the TGI [21] of the same compound?
A: 30.1 µM

Q: What about the TGI [22] of the same compound?
A: 35.4 µM

Q: And the TGI [23]?
A: 5.83 µM

Q: What about the TGI [24] of the same compound?
A: 10.8 µM

Q: What about the TGI [25] of the same compound?
A: 17.3 µM

Q: What about the TGI [27] of the same compound?
A: 32.9 µM

Q: And the TGI [28]?
A: 33 µM

Q: And the TGI [29]?
A: 27.7 µM

Q: And the TGI [30]?
A: 32 µM

Q: And the TGI [31]?
A: 32.2 µM

Q: And the TGI [32]?
A: 38.8 µM

Q: And the TGI [34]?
A: 30.7 µM

Q: And the TGI [35]?
A: 29.3 µM

Q: What about the TGI [36] of the same compound?
A: 34.2 µM

Q: What about the TGI [37] of the same compound?
A: 30.1 µM

Q: What about the TGI [38] of the same compound?
A: 29.2 µM

Q: What about the TGI [39] of the same compound?
A: 31.8 µM

Q: What about the TGI [40] of the same compound?
A: 37.2 µM

Q: And the TGI [41]?
A: 29.2 µM

Q: And the TGI [42]?
A: 29.3 µM

Q: What about the TGI [43] of the same compound?
A: 27.7 µM

Q: And the TGI [45]?
A: 36.1 µM

Q: What about the TGI [46] of the same compound?
A: 36.1 µM

Q: What about the TGI [47] of the same compound?
A: 31.1 µM

Q: What about the TGI [48] of the same compound?
A: 27.9 µM

Q: What about the TGI [49] of the same compound?
A: 27 µM

Q: And the TGI [50]?
A: 32.9 µM

Q: What about the TGI [51] of the same compound?
A: 29.7 µM

Q: And the TGI [52]?
A: 38.6 µM

Q: And the TGI [53]?
A: 31.6 µM

Q: And the TGI [54]?
A: 35 µM

Q: What about the TGI [55] of the same compound?
A: 32.4 µM

Q: And the TGI [57]?
A: 28.1 µM

Q: What about the TGI [58] of the same compound?
A: 28 µM

— PubChem BioAssay (NCI)
